Experimental data taken from US7138361B2, “Herbicidal heterocycles” (E. I. du Pont de Nemours and Company, priority 2000, dated 2006).

Tests used:
Test in all cases: Test C preemergence
Assay type in all cases: in vivo
Sunflower [1] = details: Rate 125 g/ha, scale 0 to 100, 0 no effect, 100 complete control
[2] = tested on: velvetleaf (Abutilon theophrasti)
Procedure, shortened: (§1)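 Visual injury scores of 0–100, with 100 meaning complete control, were given relative to controls after 12–14 days in the greenhouse. Treatments used a surfactant-containing non-phytotoxic solvent formulation, sprayed on seeded pots preemergence or on 1–4-leaf plants of 2–18 cm postemergence.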

[3] = tested on: bermudagrass (Cynodon dactylon)
Procedure, shortened: as §1

corn (Zea mays) = tested on: corn (Zea mays)
Procedure, shortened: as §1

[4] = tested on: yellow nutsedge (Cyperus esculentus)
Procedure, shortened: as §1

[5] = tested on: lambsquarters (Chenopodium album)
Procedure, shortened: as §1

[6] = tested on: cocklebur (Xanthium strumarium)
Procedure, shortened: as §1

[7] = tested on: johnsongrass (Sorghum halepense)
Procedure, shortened: as §1

[8] = tested on: giant foxtail (Setaria faberii)
Procedure, shortened: as §1

[9] = tested on: pigweed (Amaranthus retroflexus)
Procedure, shortened: as §1

[10] = tested on: morningglory (Ipomoea hederacea)
Procedure, shortened: as §1

[11] = tested on: common ragweed (Ambrosia elatior)
Procedure, shortened: as §1

[12] = tested on: woolly cupgrass (Eriochloa villosa)
Procedure, shortened: as §1

kochia (Kochia scoparia) = tested on: kochia (Kochia scoparia)
Procedure, shortened: as §1

[13] = tested on: Surinam grass (Brachiaria decumbens)
Procedure, shortened: as §1

[14] = tested on: goosegrass (Eleusine indica)
Procedure, shortened: as §1

Sunflower [15] = tested on: Sunflower
soybean (Glycine max) = tested on: soybean (Glycine max)
Procedure, shortened: as §1

Nightshade = tested on: Nightshade
[16] = tested on: crabgrass (Digitaria sanguinalis)
Procedure, shortened: as §1

[17] = Rate 62 g/ha, scale 0 to 100, 0 no effect, 100 complete control
[18] = preemergence, Rate 16 g/ha, scale 0 to 100
[19] = preemergence, Rate 31 g/ha, scale 0 to 100
[20] = preemergence, Rate 125 g/ha, scale 0 to 100, 0 no effect, 100 complete control
[21] = Rate 125 g/ha, scale 0 to 100, 0 no effect, 100 complete control
[22] = Preemergence, Rate 500 g/ha, scale 0 to 100
[23] = preemergence, Rate 250 g/ha, visual evaluation after 12 to 14 days

CC(C)(C)c1ccn(C2CCN(c3cccc(Cl)c3)C2=O)n1 (stereo not drawn) [Compound 43]
Plant response rating, Sunflower (Sunflower [1]): 0
Plant response rating, Velvetleaf [2, 17]: 0
Plant response rating, Velvetleaf [2, 18]: 0
Plant response rating, Velvetleaf [2, 19]: 0
Plant response rating, Velvetleaf [2, 20]: 0
Plant response rating, Bermudagrass [3, 17]: 50
Plant response rating, Bermudagrass [3, 18]: 20
Plant response rating, Bermudagrass [3, 19]: 40
Plant response rating, Bermudagrass [3, 20]: 60
Plant response rating, Corn (corn (Zea mays); [17]): 0
Plant response rating, Corn (corn (Zea mays); [18]): 0
Plant response rating, Corn (corn (Zea mays); [19]): 0
Plant response rating, Corn (corn (Zea mays); [20]): 0
Plant response rating, Nutsedge [4, 17]: 0
Plant response rating, Nutsedge [4, 18]: 0
Plant response rating, Nutsedge [4, 19]: 0
Plant response rating, Nutsedge [4, 20]: 30
Plant response rating, Lambsquarters [5, 17]: 100
Plant response rating, Lambsquarters [5, 18]: 100
Plant response rating, Lambsquarters [5, 19]: 100
Plant response rating, Lambsquarters [5, 20]: 100
Plant response rating, Cocklebur [6, 17]: 100
Plant response rating, Cocklebur [6, 18]: 0
Plant response rating, Cocklebur [6, 19]: 20
Plant response rating, Cocklebur [6, 20]: 100
Plant response rating, Johnsongrass [7, 17]: 0
Plant response rating, Johnsongrass [7, 18]: 0
Plant response rating, Johnsongrass [7, 19]: 0
Plant response rating, Johnsongrass [7, 20]: 50
Plant response rating, Foxtail, Giant [8, 17]: 0
Plant response rating, Foxtail, Giant [8, 18]: 0
Plant response rating, Foxtail, Giant [8, 19]: 0
Plant response rating, Foxtail, Giant [8, 20]: 0
Plant response rating, Pigweed [9, 17]: 100
Plant response rating, Pigweed [9, 18]: 20
Plant response rating, Pigweed [9, 19]: 100
Plant response rating, Pigweed [9, 20]: 0
Plant response rating, Morningglory [10, 17]: 0
Plant response rating, Morningglory [10, 18]: 0
Plant response rating, Morningglory [10, 19]: 0
Plant response rating, Morningglory [10, 20]: 0
Plant response rating, Ragweed, Common [11, 17]: 0
Plant response rating, Ragweed, Common [11, 18]: 0
Plant response rating, Ragweed, Common [11, 19]: 0
Plant response rating, Ragweed, Common [11, 20]: 30
Plant response rating, Cupgrass, Woolly [12, 17]: 30
Plant response rating, Cupgrass, Woolly [12, 18]: 0
Plant response rating, Cupgrass, Woolly [12, 19]: 0
Plant response rating, Cupgrass, Woolly [12, 20]: 30
Plant response rating, Kochia (kochia (Kochia scoparia); [17]): 90
Plant response rating, Kochia (kochia (Kochia scoparia); [18]): 20
Plant response rating, Kochia (kochia (Kochia scoparia); [19]): 70
Plant response rating, Kochia (kochia (Kochia scoparia); [20]): 100
Plant response rating, Surinam grass [13, 17]: 0
Plant response rating, Surinam grass [13, 18]: 0
Plant response rating, Surinam grass [13, 19]: 0
Plant response rating, Surinam grass [13, 20]: 0
Plant response rating, Goosegrass [14, 17]: 50
Plant response rating, Goosegrass [14, 18]: 0
Plant response rating, Goosegrass [14, 19]: 0
Plant response rating, Goosegrass [14, 20]: 90
Plant response rating, Sunflower (Sunflower [15]; [17]): 0
Plant response rating, Soybean (soybean (Glycine max); [17]): 0
Plant response rating, Soybean (soybean (Glycine max); [18]): 0
Plant response rating, Soybean (soybean (Glycine max); [19]): 0
Plant response rating, Soybean (soybean (Glycine max); [20]): 40
Plant response rating, Nightshade (Nightshade; Rate 16 g/ha, scale 0 to 100): 0
Plant response rating, Nightshade (Nightshade; Rate 31 g/ha, scale 0 to 100): 0
Plant response rating, Nightshade (Nightshade; [17]): 0
Plant response rating, Nightshade (Nightshade; [21]): 0
Plant response rating, Crabgrass [16, 17]: 40
Plant response rating, Crabgrass [16, 18]: 0
Plant response rating, Crabgrass [16, 19]: 20
Plant response rating, Crabgrass [16, 20]: 90

CC(C)c1ccn(C2SCN(c3cccc(OC(F)F)c3)C2=O)n1 (stereo not drawn) [Compound 44]
Plant response rating, Sunflower (Sunflower [1]): 0
Plant response rating, Velvetleaf [2, 22]: 60
Plant response rating, Velvetleaf [2, 17]: 0
Plant response rating (0 to 100), Velvetleaf [2, 23]: 20
Plant response rating, Velvetleaf [2, 20]: 0
Plant response rating, Bermudagrass [3, 22]: 100
Plant response rating, Bermudagrass [3, 17]: 90
Plant response rating (0 to 100 where 0 is no effect and 100 is complete control), Bermudagrass [3, 23]: 100
Plant response rating, Bermudagrass [3, 20]: 100
Plant response rating, Corn (corn (Zea mays); [22]): 70
Plant response rating, Corn (corn (Zea mays); [17]): 0
Plant response rating (0 to 100), Corn (corn (Zea mays); [23]): 0
Plant response rating, Corn (corn (Zea mays); [20]): 0
Plant response rating, Nutsedge [4, 22]: 100
Plant response rating, Nutsedge [4, 17]: 0
Plant response rating (0 to 100), Nutsedge [4, 23]: 60
Plant response rating, Nutsedge [4, 20]: 30
Plant response rating, Lambsquarters [5, 22]: 100
Plant response rating, Lambsquarters [5, 17]: 100
Plant response rating (0 to 100), Lambsquarters [5, 23]: 100
Plant response rating, Lambsquarters [5, 20]: 100
Plant response rating, Cocklebur [6, 22]: 100
Plant response rating (0 to 100), Cocklebur [6, 23]: 30
Plant response rating, Cocklebur [6, 20]: 0
Plant response rating, Johnsongrass [7, 22]: 100
Plant response rating, Johnsongrass [7, 17]: 0
Plant response rating (0 to 100), Johnsongrass [7, 23]: 90
Plant response rating, Johnsongrass [7, 20]: 60
Plant response rating, Foxtail, Giant [8, 22]: 90
Plant response rating, Foxtail, Giant [8, 17]: 0
Plant response rating (0 to 100), Foxtail, Giant [8, 23]: 100
Plant response rating, Foxtail, Giant [8, 20]: 100
Plant response rating, Pigweed [9, 22]: 100
Plant response rating, Pigweed [9, 17]: 0
Plant response rating (0 to 100), Pigweed [9, 23]: 20
Plant response rating, Pigweed [9, 20]: 0
Plant response rating, Morningglory [10, 22]: 40
Plant response rating, Morningglory [10, 17]: 0
Plant response rating (0 to 100), Morningglory [10, 23]: 20
Plant response rating, Morningglory [10, 20]: 0
Plant response rating, Ragweed, Common [11, 22]: 50
Plant response rating, Ragweed, Common [11, 17]: 0
Plant response rating (0 to 100), Ragweed, Common [11, 23]: 50
Plant response rating, Ragweed, Common [11, 20]: 0
Plant response rating, Cupgrass, Woolly [12, 22]: 100
Plant response rating, Cupgrass, Woolly [12, 17]: 30
Plant response rating (0 to 100), Cupgrass, Woolly [12, 23]: 100
Plant response rating, Cupgrass, Woolly [12, 20]: 90
Plant response rating, Kochia (kochia (Kochia scoparia); [22]): 100
Plant response rating, Kochia (kochia (Kochia scoparia); [17]): 70
Plant response rating (0 to 100), Kochia (kochia (Kochia scoparia); [23]): 100
Plant response rating, Kochia (kochia (Kochia scoparia); [20]): 100
Plant response rating, Surinam grass [13, 22]: 90
Plant response rating, Surinam grass [13, 17]: 0
Plant response rating (0 to 100), Surinam grass [13, 23]: 80
Plant response rating, Surinam grass [13, 20]: 80
Plant response rating, Goosegrass [14, 22]: 100
Plant response rating, Goosegrass [14, 17]: 90
Plant response rating (0 to 100), Goosegrass [14, 23]: 100
Plant response rating, Goosegrass [14, 20]: 100
Plant response rating, Sunflower (Sunflower [15]; [17]): 0
Plant response rating, Sunflower (Sunflower [15]; Rate 500 g/ha, scale 0 to 100): 30
Plant response rating, Soybean (soybean (Glycine max); [22]): 30
Plant response rating, Soybean (soybean (Glycine max); [17]): 0
Plant response rating (0 to 100), Soybean (soybean (Glycine max); [23]): 30
Plant response rating, Soybean (soybean (Glycine max); [20]): 0
Plant response rating, Nightshade (Nightshade; [17]): 0
Plant response rating, Nightshade (Nightshade; [21]): 0
Plant response rating, Nightshade (Nightshade; Rate 500 g/ha, scale 0 to 100): 30
Plant response rating, Crabgrass [16, 22]: 100
Plant response rating, Crabgrass [16, 17]: 100
Plant response rating (0 to 100), Crabgrass [16, 23]: 100
Plant response rating, Crabgrass [16, 20]: 100
